# Reference: US20150164957A1, “CONVERSION OF CARDIOMYOCYTES INTO FAST CONDUCTING CARDIOMYOCYTES OR SLOW CONDUCTING NODAL CELLS” (The University of Chicago, priority 2012, published 2015)
# Assays:
# [1] = test system: tamoxifen-treated Tbx5^minKCreERT2 and Tbx5^fl/fl mice; assay: Invasive EP studies (intracardiac recordings) following atropine administration; format: in vivo, mouse; details: for AH (AtrioHisian interval) / HV (Hisioventricular interval) / Hd (His interval duration) / SCL (sinus cycle length): Post-Atropine (20 mg/kg), Mean +/- SD
# Procedure: Electrophysiology Studies. Electrophysiology studies were performed in collaboration with Fang Liu, Kurt Schillinger, and Vic Patel at The University of Pennsylvania. Detailed protocols for in vivo electrophysiology studies have been previously described (Liu, et al., 2008). 10-12 week old mice were anesthetized with pentobarbital (33 mg/kg ip) and a 1.1-Fr octapolar electrode catheter (Millar; EPR-800) was advanced via a right jugular venous cut-down to record right atrial, His bundle, right ventricular potentials and perform programmed electrical stimulation. For studies involving atropine, surface ECG and intracardiac recordings were obtained, then repeated after mice were injected with 20 mg/kg atropine.
# The autonomic nervous system can play an important role in modulating cardiac conduction. Specifically, activation of the sympathetic nervous system can increase heart rate, contractility, and accelerate conduction through the AV node, while parasympathetic stimulation via the vagus nerve can act at the SA and AV nodes to decrease heart rate and slow AV conduction. To determine whether slowed conduction in Tbx5^minkCreERT2 mice was secondary to increased vagal tone, the inventors administered atropine, a cholinergic antagonist, to tamoxifen-treated Tbx5^minKCreERT2 and Tbx5^fl/fl mice and evaluated conduction intervals by EP studies.
# [2] = test system: Mice with hyperactivation of Nav1.8; details: cited from earlier work
# Nav1.8 [3] = details: after administration of A-803467; cited from earlier work
# Nav1.8 [4] = molecular target: Nav1.8 (Homo sapiens, UniProt Q9Y5Y9); details: at the dose used; cited from earlier work
# Chain of Nav1.8 (Homo sapiens, UniProt Q9Y5Y9) (Q9Y5Y9 whole entry): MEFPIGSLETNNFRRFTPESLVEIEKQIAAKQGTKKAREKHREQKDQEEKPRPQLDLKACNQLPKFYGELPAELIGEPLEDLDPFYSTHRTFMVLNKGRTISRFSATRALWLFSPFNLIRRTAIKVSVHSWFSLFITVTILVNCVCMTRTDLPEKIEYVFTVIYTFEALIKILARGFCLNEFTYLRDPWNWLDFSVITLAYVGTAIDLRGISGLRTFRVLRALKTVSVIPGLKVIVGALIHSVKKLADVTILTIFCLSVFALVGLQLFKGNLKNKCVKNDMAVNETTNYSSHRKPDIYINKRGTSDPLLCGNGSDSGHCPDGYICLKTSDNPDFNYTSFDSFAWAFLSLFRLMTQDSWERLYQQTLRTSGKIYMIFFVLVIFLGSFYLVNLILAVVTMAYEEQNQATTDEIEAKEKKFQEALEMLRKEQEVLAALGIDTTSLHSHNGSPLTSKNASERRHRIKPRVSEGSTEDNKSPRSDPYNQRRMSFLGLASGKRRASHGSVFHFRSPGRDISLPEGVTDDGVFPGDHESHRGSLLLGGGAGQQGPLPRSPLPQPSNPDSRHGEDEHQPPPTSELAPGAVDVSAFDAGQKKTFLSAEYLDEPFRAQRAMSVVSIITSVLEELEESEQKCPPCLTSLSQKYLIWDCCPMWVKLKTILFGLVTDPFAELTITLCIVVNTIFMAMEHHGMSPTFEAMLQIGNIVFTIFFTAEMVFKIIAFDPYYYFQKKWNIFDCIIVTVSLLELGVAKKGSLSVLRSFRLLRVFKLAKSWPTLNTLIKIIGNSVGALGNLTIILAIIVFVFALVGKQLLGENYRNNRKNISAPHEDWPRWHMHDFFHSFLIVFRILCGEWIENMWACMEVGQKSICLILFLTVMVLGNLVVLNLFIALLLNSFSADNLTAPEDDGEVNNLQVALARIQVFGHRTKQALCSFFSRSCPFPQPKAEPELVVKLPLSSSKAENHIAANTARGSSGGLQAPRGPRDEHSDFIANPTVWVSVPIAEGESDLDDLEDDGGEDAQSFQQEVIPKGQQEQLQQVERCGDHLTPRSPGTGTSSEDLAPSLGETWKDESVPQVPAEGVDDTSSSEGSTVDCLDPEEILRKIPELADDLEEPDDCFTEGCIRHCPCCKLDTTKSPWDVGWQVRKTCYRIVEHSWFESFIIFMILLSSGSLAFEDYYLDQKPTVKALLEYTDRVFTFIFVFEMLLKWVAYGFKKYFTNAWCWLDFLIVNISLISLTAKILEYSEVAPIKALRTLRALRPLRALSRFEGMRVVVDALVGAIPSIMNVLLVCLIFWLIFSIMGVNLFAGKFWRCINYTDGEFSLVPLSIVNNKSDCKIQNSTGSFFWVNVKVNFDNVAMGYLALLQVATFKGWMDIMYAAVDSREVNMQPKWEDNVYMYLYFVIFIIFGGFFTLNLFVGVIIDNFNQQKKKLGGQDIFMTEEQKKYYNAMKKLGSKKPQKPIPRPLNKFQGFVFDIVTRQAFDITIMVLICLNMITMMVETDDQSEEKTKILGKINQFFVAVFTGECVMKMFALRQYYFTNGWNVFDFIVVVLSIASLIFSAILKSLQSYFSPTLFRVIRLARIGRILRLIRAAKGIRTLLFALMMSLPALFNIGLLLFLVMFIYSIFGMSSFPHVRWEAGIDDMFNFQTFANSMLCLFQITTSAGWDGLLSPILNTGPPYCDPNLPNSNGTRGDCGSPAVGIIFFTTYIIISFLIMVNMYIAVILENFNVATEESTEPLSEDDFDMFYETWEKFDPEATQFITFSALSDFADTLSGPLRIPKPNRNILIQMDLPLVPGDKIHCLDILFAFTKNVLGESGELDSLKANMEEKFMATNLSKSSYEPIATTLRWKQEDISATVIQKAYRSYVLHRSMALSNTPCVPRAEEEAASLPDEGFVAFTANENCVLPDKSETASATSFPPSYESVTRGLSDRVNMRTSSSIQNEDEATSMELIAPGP
SMILES,AH (AtrioHisian interval) ([1]; Tbx5^fl/fl mice (n = 3)),HV (Hisioventricular interval) ([1]; Tbx5^fl/fl mice (n = 3)),Hd (His interval duration) ([1]; Tbx5^fl/fl mice (n = 3)),SCL (sinus cycle length) ([1]; Tbx5^fl/fl mice (n = 3)),AH (AtrioHisian interval) ([1]; Tbx5^minKCreERT2 mice (n = 3)),HV (Hisioventricular interval) ([1]; Tbx5^minKCreERT2 mice (n = 3)),Hd (His interval duration) ([1]; Tbx5^minKCreERT2 mice (n = 3)),SCL (sinus cycle length) ([1]; Tbx5^minKCreERT2 mice (n = 3)),"Effect of cholinergic blockade on conduction ([1]; Tbx5^minKCreERT2 or Tbx5^fl/fl mice, EP studies)",Effect on sinus bradycardia following scruffing [2],H-V interval (Nav1.8 [3]),P-R interval (Nav1.8 [3]),QRS interval (Nav1.8 [3]),Activity against Nav1.8 relative to Nav1.5 (Nav1.8 [4])
"CN1[C@@H]2CC[C@H]1C[C@@H](OC(=O)C(CO)c1ccccc1)C2 (some centres unmarked) [Atropine, atropine]",28.0 ± 9.9 ms,9.0 ± 3.2 ms,3.7 ± 1.5 ms,141.3 ± 30.9 ms,35.7 ± 3.6 ms,26.0 ± 2.4 ms,11.7 ± 2.5 ms,146.3 ± 11.6 ms,did not result in accelerated conduction,blocked,,,,
COc1cc(NC(=O)c2ccc(-c3ccc(Cl)cc3)o2)cc(OC)c1 [A-803467],,,,,,,,,,,increased,increased,increased,100 fold
